Series [1] is described as follows: Measurement of logP values by HPLC on reversed phase columns (EEC directive 79/831 Annex V.A8). The series is classed as physicochemical. Particulars: pH 2.7, 0.1% formic acid in water / acetonitrile gradient, calibration with alkan-2-ones. The method, then:
Measurement of logP values was performed according EEC directive 79/831 Annex V.A8 by HPLC (High Performance Liquid Chromatography) on reversed phase columns with the following methods:
Measurement of LC-MS was done at pH 2.7 with 0.1% formic acid in water and with acetonitrile (contains 0.1% formic acid) as eluent with a linear gradient from 10% acetonitrile to 95% acetonitrile.
Calibration was done with not branched alkan2-ones (with 3 to 16 carbon atoms) with known logP-values (measurement of logP values using retention times with linear interpolation between successive alkanones). lambda-maX-values were determined using UV-spectra from 200 nm to 400 nm and the peak values of the chromatographic signals.

For a further series, the system named is Phytophthora infestans. It counts as in vivo. Particulars: tomato plants, preventive spray, 500 ppm of active ingredient, evaluated 7 days after inoculation; 0% = untreated control, 100% = no disease.
In another series the test system is Plasmopara viticola. Kind of series: Plasmopara test (grapevines)/preventive. The conditions noted are these: preventive spray, 10 ppm of active ingredient, evaluated 6 days after inoculation, 0% = untreated control, 100% = no disease. The series is classed as in vivo. The protocol:
To produce a suitable preparation of active compound, 1 part by weight of active compound is mixed with the stated amounts of solvent and emulsifier, and the concentrate is diluted with water to the desired concentration.
To test for preventive activity, young plants are sprayed with the preparation of active compound at the stated rate of application. After the spray coating has dried on, the plants are inoculated with an aqueous spore suspension of Plasmopara viticola and then remain for 1 day in an incubation cabinet at approximately 20° C. and a relative atmospheric humidity of 100%. The plant is subsequently placed for 4 days in a greenhouse at approximately 21° C. and a relative atmospheric humidity of approximately 90%. The plants are then misted and placed for 1 day in an incubation cabinet.
The test is evaluated 6 days after the inoculation. 0% means an efficacy which corresponds to that of the untreated control, while an efficacy of 100% means that no disease is observed.

The subject of another series is Pythium ultimum. The series is described as follows: Pythium test (cotton)/seed treatment. The series is classed as in vivo. Particulars: 50 g/dt seed of active ingredient, greenhouse 7 days, 100% = all seedlings have emerged. The method, then:
The test is performed under greenhouse conditions.
Cotton seeds, treated with the active compound or compound combinations, solved in N-methyl-2-pyrrolidon and diluted with water to the desired dosages, were sown in 6*6 cm pots containing 4 cm of a 1:1 mix of steamed field soil and sand.
Perlite was incubated with mycelium fragments of Pythium ultimum. 1 ml of infected perlite was scattered between the treated cotton seeds. Seeds were then covered by light expanded clay aggregate. Pots were incubated in the greenhouse 7 days at 20° C. and 80% relative humidity.
Assessment consisted of counting of emerged seedlings. 0% means an efficacy which corresponds to that of the control, while an efficacy of 100% means that all seedlings have emerged.

Molecules are shown by their SMILES.

For `Cc1nnnn1C(=NOCc1csc(NC(=O)C(C)OCC2CC2)n1)c1ccccc1` (stereo not drawn) [Example 34], the “Log P” value in series [1] is 3.35. The Eff. % in the series on Phytophthora infestans amounted to 100%; in the series with Plasmopara viticola, 94%; in the series on Pythium ultimum, 92%.

`Cn1nnnc1C(=NOCc1csc(NC(=O)COCc2ccccc2)n1)c1ccccc1` [Example 50]: the “Log P” value in series [1] turned out to be 3.37. The Eff. % in the series on Phytophthora infestans was 100%; in the series with Plasmopara viticola, 100%; in the series on Pythium ultimum it was 93%.

For the molecule `CC(OCC1CC1)C(=O)Nc1nc(CON=C(c2ccccc2)c2nnnn2C)cs1` (stereo not drawn) [Example 14], the “Log P” value in series [1] is 3.29. In addition, the Eff. % is given as 100% with Phytophthora infestans, 97% in the series with Plasmopara viticola and 100% in the series with Pythium ultimum.

For `Cc1nnnn1C(=NOCc1csc(NC(=O)C(C)OCC2CCC2)n1)c1ccccc1` (stereo not drawn) [Example 42], the “Log P” value in series [1] is listed as 3.9. The Eff. % worked out at 100% in the series on Phytophthora infestans and 93% in the series with Plasmopara viticola.

In the case of `Cn1nnnc1C(=NOCc1cccc(NC(=O)COCc2ccccc2)n1)c1ccccc1` [Example 48], the lipophilicity (Log P) in series [1] worked out at 3.63. Also, the Eff. % is reported as 95% in the series on Phytophthora infestans and 96% in the series on Plasmopara viticola.

On to `Cc1nnnn1C(=NOCc1cccc(NC(=O)C(C)OCC2CC2)n1)c1ccccc1` (stereo not drawn) [Example 24], for which, in series [1], the “Log P” value was 3.63. Moreover, the values for the Eff. % with Phytophthora infestans and in the series on Plasmopara viticola were 100% and 81%, respectively.

As for `CC(OCC1CC1)C(=O)Nc1cccc(CON=C(c2ccccc2)c2nnnn2C)n1` (stereo not drawn) [Example 2], in series [1], the “Log P” value is 3.55. The Eff. % in the series with Plasmopara viticola was found to be 95%; in the series on Pythium ultimum it was 100%.

In the case of `CC(SC1CCCCC1)C(=O)Nc1nc(CON=C(c2ccccc2)c2nnnn2C)cs1` (stereo not drawn) [Example 74], in series [1], the “Log P” value is given as 4.12. The Eff. % in the series on Phytophthora infestans came out at 100%; in the series on Plasmopara viticola it was 82%.

The values are drawn from patent US20140051575A1 (priority 2011, published 2014).
